Data: patent publication US9241486B2, “Combination and methods for controlling turfgrass pests” (Bayer CropScience LP, priority 2012, dated 2016)

How the values were obtained:
Type in all cases: in vivo
[1] = system: Southern Chinch Bug (Blissus insularis); test: Field plot trial on St. Augustine grass infested with Southern Chinch Bug, number of live bugs (Example 1); details: for Number of Chinch bugs 0 Days After Application / Number of Chinch bugs 4 Days After Application / Number of chinch bugs 7 Days After Application / Number of chinch bugs 18 Days After Application: spray, 40 gallons water per acre, spirotetramat 111 g/ha, azadirachtin 222 g/ha, imidacloprid + azadirachtin 111 + 222 g/ha; for Control of Southern chinch bugs (in words): Example 1, summary of Table 1
Description: Plots approximately 6 feet by 10 feet with three replicates and planted with St. Augustine grass are infested with the Southern Chinch Bug (Blissus insularis). Using a sprayer (research back pack sprayers), Spirotetramat (MOVENTO 240 SC) on its own, azadirachtin (AZATIN XL) on its own, and a mixture of imidacloprid (MERIT 240 SC) and azadirachtin, are applied at the application rates specified. The water application rate is 40 gallons per acre. The evaluation is performed 0 days, 4 days, 7 days, and 18 days after the treatment by determining the number of live Southern Chinch Bugs.

[2] = system: Southern Chinch Bug (Blissus insularis); test: Field plot trial on St. Augustine grass infected with Southern chinch bug, number of chinch bugs (Example 2); details: for Number of chinch bugs at 0 Days / Number of chinch bugs at 5 days / Number of chinch bugs at 13 days / Number of chinch bugs at 29 days / Number of chinch bugs at 41 days / Number of chinch bugs at 58 days: Allectus 1083 g ai/ha total, imidacloprid 448.8 g ai/ha, spirotetramat 175.8 g ai/ha, mixture 175.8 + 448.8 g ai/ha; for Number of chinch bugs at 5 days: 5 days after treatment; for Number of chinch bugs at 13 days: 13 days after treatment; for Number of chinch bugs at 29 days: 29 days after treatment; for Number of chinch bugs at 41 days: 41 days after treatment; for Number of chinch bugs at 58 days: 58 days after treatment; for Control of Southern chinch bugs (in words): Example 2, summary of Table 2, up to 58 days after treatment
From the text: (§1) Plots approximately 30 ft by 10 ft with 3 replicates and planted with St. Augustine grass are infected with Southern chinch bug (Blissus insularis). Using a pneumatic sprayer, a mixture of the spirotetramat (MOVENTO 240 SC) and imidacloprid (MERIT 240 SC) is applied in comparision to the spirotetramat (MOVENTO 240 SC) on its own, the imidacloprid (MERIT 240 SC) on its own, and the gold standard Pyrethrin treatment ALLECTUS™ (imidacloprid+bifenthrin), at the application rates specified. The water application rate is 40 gallons per acre. The evaluation is performed 0 days, 5 days, 13 days, 29 days, 41 days, and 58 days after the treatment by determining the number of chinch bugs and the chlorophyll content of the grass. The higher the chlorophyll content of the grass, the greener and lusher the grass is.

St. Augustine grass = test: Chlorophyll content of St. Augustine grass infected with Southern chinch bug (Example 2); details: Allectus 1083 g ai/ha total, imidacloprid 448.8 g ai/ha, spirotetramat 175.8 g ai/ha, mixture 175.8 + 448.8 g ai/ha; for Chlorophyll Content 5 days: 5 days after treatment; for Chlorophyll Content 13 days: 13 days after treatment; for Chlorophyll Content 41 days: 41 days after treatment; for Chlorophyll Content 58 days: 58 days after treatment
From the text: as §1

| Compound | Number of Chinch bugs 0 Days After Application [1] | Number of Chinch bugs 4 Days After Application [1] | Number of chinch bugs 7 Days After Application [1] | Number of chinch bugs 18 Days After Application [1] | Control of Southern chinch bugs (in words) [1] | Number of chinch bugs at 0 Days [2] | Number of chinch bugs at 5 days [2] | Number of chinch bugs at 13 days [2] | Number of chinch bugs at 29 days [2] | Number of chinch bugs at 41 days [2] | Number of chinch bugs at 58 days [2] | Control of Southern chinch bugs (in words) [2] | Chlorophyll Content 5 days (St. Augustine grass) | Chlorophyll Content 13 days (St. Augustine grass) | Chlorophyll Content 41 days (St. Augustine grass) | Chlorophyll Content 58 days (St. Augustine grass) |
| --- | --- | --- | --- | --- | --- | --- | --- | --- | --- | --- | --- | --- | --- | --- | --- | --- |
| C/C=C(\C)C(=O)O[C@H]1C[C@@H](OC(C)=O)[C@@]2(C(=O)OC)CO[C@H]3[C@@H](O)[C@@](C)([C@]45O[C@@]4(C)[C@H]4C[C@@H]5O[C@@H]5OC=C[C@@]54O)[C@H]4[C@]1(CO[C@]4(O)C(=O)OC)[C@@H]32 [Azadirachtin, azadirachtin] | 12 | 15 | 5 | 11 |  |  |  |  |  |  |  |  |  |  |  |  |
| CCOC(=O)OC1=C(c2cc(C)ccc2C)C(=O)N[C@]12CC[C@@H](OC)CC2 [Spirotetramat] | 6 | 12 | 6 | 10 | none of the compounds provided good control | 50 | 45 | 73 | 45 | 83 | 26 | neither spirotetramat or imidacloprid alone provided good control | 3.338 | 3.250 | 2.292 | 2.149 |
| O=[N+]([O-])/N=C1\NCCN1Cc1ccc(Cl)nc1 [Imidacloprid, imidacloprid] |  |  |  |  | none of the compounds provided good control | 50 | 19 | 41 | 30 | 65 | 9 | neither spirotetramat or imidacloprid alone provided good control | 2.733 | 3.215 | 3.185 | 3.250 |
